Source: ChEMBL document CHEMBL3297666, “Antibacterial inhibitors of Gram-positive thymidylate kinase: structure-activity relationships and chiral preference of a new hydrophobic binding region” (J Med Chem, 2014)
Blank lines part the entries; values can stand above or below the compound they belong to. The source made the active and inactive calls. The rule behind the calls is not given here.

Tests used:
[1] = Retention time of the compound by LC-MS method; assay type: physicochemical
[2] = Inhibition of Staphylococcus aureus TMK assessed as decrease in ATP production using dTDP and ADP as substrate after 3.5 hrs by luciferin/luciferase based luminescence analysis
Staphylococcus aureus [3] = assay: Antibacterial activity against methicillin-resistant and quinolone-resistant Staphylococcus aureus ARC 517 assessed as growth inhibition by broth microdilution method; assay type: functional
Staphylococcus aureus [4] = assay: Antibacterial activity against Staphylococcus aureus ARC 516 assessed as growth inhibition by broth microdilution method; assay type: functional
Enterococcus faecium = assay: Antibacterial activity against linezolid-resistant Enterococcus faecium ARC 1239 assessed as growth inhibition by broth microdilution method; assay type: functional
Streptococcus pyogenes = assay: Antibacterial activity against Streptococcus pyogenes ARC 2834 assessed as growth inhibition by broth microdilution method; assay type: functional
[5] = Ratio of IC50 for human […] to IC50 for Staphylococcus aureus TMK
[6] = Fraction unbound in mouse plasma at 10 uM after 5 hrs by rapid equilibrium dialysis method; assay type: ADME, cell-free
Enterococcus faecalis = assay: Antibacterial activity against vancomycin-resistant Enterococcus faecalis ARC 1618 assessed as growth inhibition by broth microdilution method; assay type: functional
Staphylococcus aureus [7] = assay: Antibacterial activity against methicillin-sensitive Staphylococcus aureus ARC 516 in mouse neutropenic thigh infection model assessed as reduction in number of colony-forming units at 400 mg/kg/day, ip administered bid every 12 hrs as equal divided dose starting 2 hrs after infection measured 24 hrs after drug dosing relative to control; assay type: functional; details: route intraperitoneal
Streptococcus pneumoniae = assay: Antibacterial activity against Streptococcus pneumoniae ARC 2481 assessed as growth inhibition by broth microdilution method; assay type: functional
Pseudomonas aeruginosa = assay: Antibacterial activity against Pseudomonas aeruginosa ARC 545 assessed as growth inhibition by broth microdilution method; assay type: functional
[8] = Octanol-sodium phosphate buffer partition coefficient, log D of the compound at pH 7.4 by shake-flask method
[9] = In vivo clearance in Wistar rat at 5 to 10 mg/kg, iv administered as bolus dose; assay type: ADME, organism-based; design: dose 5-10 mg/kg, route intravenous
Escherichia coli = assay: Antibacterial activity against Escherichia coli ARC 523 assessed as growth inhibition by broth microdilution method; assay type: functional
[10] = Fraction unbound in human plasma at 10 uM after 5 hrs by rapid equilibrium dialysis method; assay type: ADME, cell-free
[11] = fT>MIC in mouse neutropenic thigh infection model infected with methicillin-sensitive Staphylococcus aureus ARC 516; design: species or system Thigh muscle
[12] = system: Staphylococcus epidermidis; assay: Antibacterial activity against Staphylococcus epidermidis ARC 323 assessed as growth inhibition by broth microdilution method; assay type: functional
Staphylococcus aureus [13] = assay: Antibacterial activity against methicillin-sensitive Staphylococcus aureus ARC 516 in mouse neutropenic thigh infection model assessed as inhibition of progression of bacterial infection at 100 to 200 mg/kg/day, ip administered once daily starting 2 hrs after infection measured 24 hrs after drug dosing; assay type: functional, organism-based
[14] = Cytotoxicity against human A549 cells; assay type: cell-based; details: read-out: MIC

SMILES: CCC(O)c1ccc(Br)c(Oc2cccc(Cl)c2)c1OC (stereo not drawn)
Retention_time [1]: 3.27 min

SMILES: CCC[C@@H](c1ccc(C(=O)O)c(Oc2cccc(Cl)c2)c1)N1CCC[C@H](n2cc(C)c(=O)[nH]c2=O)C1
IC50 [2]: 0.018 µM | MIC (Staphylococcus aureus [3]): 4 mg/L | MIC (Staphylococcus aureus [4]): 4 mg/L

SMILES: Cc1cn([C@H]2CCCN([C@@H](CC(C)C)c3ccc(C(=O)O)c(Oc4cccc(Cl)c4)c3F)C2)c(=O)[nH]c1=O
MIC (Enterococcus faecium): 2 mg/L | MIC (Streptococcus pyogenes): 2 mg/L | Ratio IC50 [5]: > 25000 | fraction unbound at 5 h, 10 µM [6]: 0.005 | MIC (Enterococcus faecalis): 4 mg/L | fold change (FC) (Staphylococcus aureus [7]): 10 | MIC90 (Streptococcus pneumoniae): 0.13 mg/L | MIC (Pseudomonas aeruginosa): > 64 mg/L | logD [8]: 0.57 | clearance [9]: 2.28 L/h/kg | MIC (Escherichia coli): > 64 mg/L | IC50 [2]: 0.001 µM | fraction unbound at 5 h, 10 µM [10]: 0.007 | MIC (Staphylococcus aureus [3]): 0.5 mg/L | MIC (Staphylococcus aureus [4]): 0.5 mg/L | Retention_time [1]: 2 min | fT>MIC [11]: 27% | MIC [12]: 4 mg/L | inhibition (Staphylococcus aureus [13]): Active

SMILES: CC[C@H](c1ccc(C(=O)O)c(Oc2cccc(Cl)c2)c1OC)N1CCC[C@H](n2cc(C)c(=O)[nH]c2=O)C1
fraction unbound at 5 h, 10 µM [6]: 0.006 | logD [8]: -0.13 | clearance [9]: 5.04 L/h/kg | IC50 [2]: 0.069 µM | fraction unbound at 5 h, 10 µM [10]: 0.015 | MIC (Staphylococcus aureus [3]): > 16 mg/L | MIC (Staphylococcus aureus [4]): > 16 mg/L | Retention_time [1]: 1.55 min

SMILES: CCC[C@H](c1ccc(C(=O)O)c(Oc2cccc(Cl)c2)c1OC)N1CCC[C@H](n2cc(C)c(=O)[nH]c2=O)C1
logD [8]: 0.08 | IC50 [2]: 0.03 µM | fraction unbound at 5 h, 10 µM [10]: 0.034 | MIC (Staphylococcus aureus [3]): > 16 mg/L | MIC (Staphylococcus aureus [4]): > 16 mg/L | Retention_time [1]: 2.18 min

SMILES: CC[C@@H](c1ccc(C(=O)O)c(Oc2cccc(Cl)c2)c1)N1CCC[C@H](n2cc(C)c(=O)[nH]c2=O)C1
logD [8]: 0.22 | IC50 [2]: 0.018 µM | MIC (Staphylococcus aureus [3]): 4 mg/L | MIC (Staphylococcus aureus [4]): 2 mg/L

SMILES: Cc1cn([C@H]2CCCN([C@H](CC(C)C)c3ccc(C(=O)O)c(Oc4cccc(Cl)c4)c3F)C2)c(=O)[nH]c1=O
MIC (Enterococcus faecium): 2 mg/L | MIC90 (Streptococcus pyogenes): 2 mg/L | Ratio IC50 [5]: > 25000 | fraction unbound at 5 h, 10 µM [6]: < 0.01 | MIC (Enterococcus faecalis): 8 mg/L | MIC90 (Streptococcus pneumoniae): 0.13 mg/L | MIC (Pseudomonas aeruginosa): > 64 mg/L | logD [8]: 0.92 | clearance [9]: 5.04 L/h/kg | MIC (Escherichia coli): > 64 mg/L | IC50 [2]: 0.001 µM | fraction unbound at 5 h, 10 µM [10]: 0.013 | MIC (Staphylococcus aureus [3]): 0.5 mg/L | MIC90 (Staphylococcus aureus [3]): 2 mg/L | MIC (Staphylococcus aureus [4]): 0.25 mg/L | MIC90 (Staphylococcus aureus [4]): 2 mg/L | MIC [12]: 2 mg/L

SMILES: CC[C@@H](c1ccc(C(=O)O)c(Oc2cccc(Cl)c2)c1F)N1CCC[C@H](n2cc(C)c(=O)[nH]c2=O)C1
logD [8]: 0.11 | IC50 [2]: 0.003 µM | fraction unbound at 5 h, 10 µM [10]: 0.011 | MIC (Staphylococcus aureus [3]): 1 mg/L | MIC (Staphylococcus aureus [4]): 4 mg/L | Retention_time [1]: 1.72 min

SMILES: Cc1cn([C@H]2CCCN([C@H](CC(C)(C)C)c3ccc(C(=O)O)c(Oc4cccc(Br)c4)c3)C2)c(=O)[nH]c1=O
MIC (Enterococcus faecium): 0.25 mg/L | MCC [14]: > 64 µg/mL | MIC90 (Streptococcus pyogenes): 0.5 mg/L | Ratio IC50 [5]: > 25000 | fraction unbound at 5 h, 10 µM [6]: < 0.003 | MIC (Enterococcus faecalis): 1 mg/L | MIC90 (Streptococcus pneumoniae): 0.03 mg/L | MIC (Pseudomonas aeruginosa): > 64 mg/L | clearance [9]: 2.52 L/h/kg | MIC (Escherichia coli): > 64 mg/L | IC50 [2]: 0.0008 µM | fraction unbound at 5 h, 10 µM [10]: 0.032 | MIC90 (Staphylococcus aureus [3]): 1 mg/L | MIC90 (Staphylococcus aureus [4]): 1 mg/L | MIC [12]: 2 mg/L

SMILES: CC[C@@H](c1ccc(C(=O)O)c(Oc2cccc(Cl)c2)c1OC)N1CCC[C@H](n2cc(C)c(=O)[nH]c2=O)C1
MIC (Enterococcus faecium): 8 mg/L | MCC [14]: > 64 µg/mL | MIC90 (Streptococcus pyogenes): 4 mg/L | Ratio IC50 [5]: > 25000 | fraction unbound at 5 h, 10 µM [6]: 0.011 | MIC (Enterococcus faecalis): > 8 mg/L | MIC90 (Streptococcus pneumoniae): 2 mg/L | MIC (Pseudomonas aeruginosa): > 64 mg/L | logD [8]: -0.02 | clearance [9]: 4.38 L/h/kg | MIC (Escherichia coli): > 64 mg/L | IC50 [2]: 0.003 µM | fraction unbound at 5 h, 10 µM [10]: 0.11 | MIC (Staphylococcus aureus [3]): 2 mg/L | MIC90 (Staphylococcus aureus [3]): 4 mg/L | MIC (Staphylococcus aureus [4]): 4 mg/L | MIC90 (Staphylococcus aureus [4]): 4 mg/L | Retention_time [1]: 1.65 min | MIC [12]: 4 mg/L

SMILES: O=Cc1cccc(O)c1F
Retention_time [1]: 1.23 min

The next lines start with the values.

Retention_time [1]: 2.41 min
SMILES: CCC(c1ccc(Br)c(Oc2cccc(Cl)c2)c1OC)N1CCC[C@H](n2cc(C)c(=O)[nH]c2=O)C1 (stereo partly drawn)

IC50 [2]: 1.19 µM | Retention_time [1]: 2.16 min
SMILES: Cc1cn([C@H]2CCCN(Cc3cccc(Oc4cccc(Cl)c4)c3C#N)C2)c(=O)[nH]c1=O

Retention_time [1]: 3.1 min
SMILES: Cc1cn([C@H]2CCCN(C(CC(C)C)c3ccc(Br)c(F)c3F)C2)c(=O)[nH]c1=O (stereo partly drawn)

IC50 [2]: 67.4 µM | Retention_time [1]: 2.5 min
SMILES: CCCc1c(CN2CCC[C@H](n3cc(C)c(=O)[nH]c3=O)C2)cccc1Oc1cc(F)cc(Cl)c1

Retention_time [1]: 1.93 min
SMILES: Cc1cn([C@H]2CCCN(C(CC(C)C)c3ccc(C#N)c(F)c3F)C2)c(=O)[nH]c1=O (stereo partly drawn)

IC50 [2]: 0.086 µM | Retention_time [1]: 2 min
SMILES: Cc1cn([C@H]2CCCN(Cc3cccc(Oc4cccc(Cl)c4)c3F)C2)c(=O)[nH]c1=O

IC50 [2]: 0.474 µM | Retention_time [1]: 3 min
SMILES: COc1c(CN2CCC[C@H](n3cc(C)c(=O)[nH]c3=O)C2)cccc1Oc1cc(F)cc(Cl)c1

Retention_time [1]: 2.62 min
SMILES: Cc1cn([C@H]2CCCN(C(CC(C)C)c3ccc(C#N)c(Oc4cccc(Cl)c4)c3F)C2)c(=O)[nH]c1=O (stereo partly drawn)

IC50 [2]: 0.779 µM | Retention_time [1]: 2.31 min
SMILES: Cc1cn([C@H]2CCCN(Cc3cccc(Oc4cc(F)cc(Cl)c4)c3Cl)C2)c(=O)[nH]c1=O
